Read-outs that look alike come from different tables or passages of the source.
Molecular target: T1, F508del (Homo sapiens, UniProt P13569, DEL508-508)
T1 construct: expressed in transfected cells
Assay: Protocol 2: FRET membrane potential optical assay (VIPR), identification of correction compounds
Type: cell-based
Summary of the method: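 NIH3T3 mouse fibroblasts stably expressing F508del-CFTR incubated with compound 16 h at 37 °C in serum-free medium, then loaded with CC2-DMPE/DiSBAC2(3) FRET dyes. Channel activated with 10 μM forskolin plus 20 μM genistein in Cl⁻-free (gluconate) bath; depolarisation from Cl⁻ efflux read on VIPR II.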

[1] = Table 3, compounds of Table 1 as modulators of CFTR activity, protocol not stated
[2] = F508del CFTR modulator activity, compounds of Table 1, read-out: EC30

T1 sequence (P13569 with tags, fused parts or gaps DEL508-508): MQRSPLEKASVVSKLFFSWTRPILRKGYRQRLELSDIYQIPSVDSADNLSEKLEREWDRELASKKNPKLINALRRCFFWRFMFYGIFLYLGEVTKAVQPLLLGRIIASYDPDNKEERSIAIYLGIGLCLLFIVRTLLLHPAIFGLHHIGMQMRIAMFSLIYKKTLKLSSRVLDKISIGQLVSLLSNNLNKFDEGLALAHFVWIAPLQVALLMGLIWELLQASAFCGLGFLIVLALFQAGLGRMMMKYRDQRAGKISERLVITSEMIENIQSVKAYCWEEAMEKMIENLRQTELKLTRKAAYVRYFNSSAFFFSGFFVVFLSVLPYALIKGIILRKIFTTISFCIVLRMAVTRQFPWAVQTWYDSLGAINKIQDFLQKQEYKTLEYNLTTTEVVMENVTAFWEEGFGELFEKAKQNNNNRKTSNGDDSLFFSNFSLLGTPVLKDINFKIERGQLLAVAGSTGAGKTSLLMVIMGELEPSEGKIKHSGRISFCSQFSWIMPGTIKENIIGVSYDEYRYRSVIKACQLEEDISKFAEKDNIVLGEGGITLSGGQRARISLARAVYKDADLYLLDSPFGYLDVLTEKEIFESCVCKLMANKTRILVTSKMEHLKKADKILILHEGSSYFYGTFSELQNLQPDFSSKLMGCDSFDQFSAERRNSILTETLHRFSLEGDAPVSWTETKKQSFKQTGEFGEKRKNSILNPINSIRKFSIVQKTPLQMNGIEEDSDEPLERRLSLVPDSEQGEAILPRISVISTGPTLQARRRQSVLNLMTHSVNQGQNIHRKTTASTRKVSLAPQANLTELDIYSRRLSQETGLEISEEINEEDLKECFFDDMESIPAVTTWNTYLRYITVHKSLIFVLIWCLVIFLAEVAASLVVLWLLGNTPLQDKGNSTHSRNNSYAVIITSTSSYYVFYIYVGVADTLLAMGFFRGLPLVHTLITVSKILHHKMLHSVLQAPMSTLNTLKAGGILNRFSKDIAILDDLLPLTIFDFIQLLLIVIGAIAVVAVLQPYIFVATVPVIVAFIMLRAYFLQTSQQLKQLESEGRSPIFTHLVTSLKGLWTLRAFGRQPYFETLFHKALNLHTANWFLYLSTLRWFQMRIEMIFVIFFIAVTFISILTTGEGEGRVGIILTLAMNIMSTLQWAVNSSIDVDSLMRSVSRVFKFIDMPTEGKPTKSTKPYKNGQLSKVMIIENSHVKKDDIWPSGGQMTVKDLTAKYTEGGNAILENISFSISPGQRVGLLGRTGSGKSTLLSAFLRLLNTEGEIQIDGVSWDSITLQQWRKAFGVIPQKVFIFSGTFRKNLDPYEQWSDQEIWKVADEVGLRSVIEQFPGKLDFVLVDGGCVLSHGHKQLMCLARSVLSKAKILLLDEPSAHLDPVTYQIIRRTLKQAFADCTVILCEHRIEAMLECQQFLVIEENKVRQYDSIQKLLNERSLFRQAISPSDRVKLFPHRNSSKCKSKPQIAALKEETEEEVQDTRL

EC30 [1]	EC30 [2] [nM]	SMILES
+++ (“+++” means <3 uM)		Cc1cc(C)c(Oc2nc(-c3ccc(N(C)C)nc3)ccc2C(=O)NS(=O)(=O)c2cccc(N)n2)c(C)c1 [Compound 787, N-[(6-amino-2-pyridyl)sulfonyl]-6-[6-(dimethylamino)-3-pyridyl]-2-(2,4,6-trimethylphenoxy)pyridine-3-carboxamide]
++ (“++” means between 3 uM and 10 uM)		Cc1cc(C)c(Oc2nc3ccccc3cc2C(=O)NS(=O)(=O)c2cccc(N)n2)c(C)c1 [Compound 91, N-[(6-amino-2-pyridyl)sulfonyl]-2-(2,4,6-trimethylphenoxy)quinoline-3-carboxamide]
	< 3000	C[C@@H]1CN(c2nc(-c3ccc(OC(F)(F)F)cc3)ccc2C(=O)NS(=O)(=O)c2ccc[nH]c2=O)C(C)(C)C1 [Compound 2234, N-[(2-oxo-1H-pyridin-3-yl)sulfonyl]-6-[4-(trifluoromethoxy)phenyl]-2-[(4S)-2,2,4-trimethylpyrrolidin-1-yl]pyridine-3-carboxamide]
++ (“++” means between 3 uM and 10 uM)		Cc1cc(C)c(Cn2nc(CC(C)C)cc2C(=O)NS(=O)(=O)c2cccc(N)c2)c(C)c1 [Compound 167, N-(3-aminophenyl)sulfonyl-5-isobutyl-2-[(2,4,6-trimethylphenyl)methyl]pyrazole-3-carboxamide]
	< 3000	C[C@@H]1CN(c2nc(C3CC4CCC3C4)ccc2C(=O)NS(=O)(=O)c2cccnc2N)C(C)(C)C1 (stereo partly drawn) [Compound 2097, N-[(2-amino-3-pyridyl)sulfonyl]-6-norbornan-2-yl-2-[(4S)-2,2,4-trimethylpyrrolidin-1-yl]pyridine-3-carboxamide]
+++ (“+++” means <3 uM)		Cc1cc(C)c(Cn2c(C(=O)NS(=O)(=O)c3cccc(N)n3)cc3cc(C(C)C)ccc32)c(C)c1 [Compound 404, N-[(6-amino-2-pyridyl)sulfonyl]-5-isopropyl-1-[(2,4,6-trimethylphenyl)methyl]indole-2-carboxamide]
+++ (“+++” means <3 uM)		Cc1cc(C)c(Cn2cc(C(C)(C)C)nc2C(=O)NS(=O)(=O)c2cccc(N)c2)c(C)c1 [Compound 255, N-(3-aminophenyl)sulfonyl-4-tert-butyl-1-[(2,4,6-trimethylphenyl)methyl]imidazole-2-carboxamide]
+++ (“+++” means <3 uM)		Cc1cc(C)c(C)c(Cn2nc(C(C)(C)C)cc2C(=O)NS(=O)(=O)c2cccc(N)c2)c1C [Compound 317, N-(3-aminophenyl)sulfonyl-5-tert-butyl-2-[(2,3,5,6-tetramethylphenyl)methyl]pyrazole-3-carboxamide]
	< 3000	COc1ccc(S(=O)(=O)NC(=O)c2ccc(-c3ccc(OC(C)C)nc3)nc2N2C[C@@H](C)CC2(C)C)c(N)n1 [Compound 2688]
	< 3000	CC(C)Cn1ccc(-c2ccc(C(=O)NS(=O)(=O)c3cccc(N)n3)c(N3C[C@@H](C)CC3(C)C)n2)n1 [Compound 2114, N-[(6-amino-2-pyridyl)sulfonyl]-6-(1-isobutylpyrazol-3-yl)-2-[(4S)-2,2,4-trimethylpyrrolidin-1-yl]pyridine-3-carboxamide]
+++ (“+++” means <3 uM)		Cc1cccc(C)c1Cn1c(C(=O)NS(=O)(=O)c2cccc(N)c2)cc2ccccc21 [Compound 331, N-(3-aminophenyl)sulfonyl-1-[(2,6-dimethylphenyl)methyl]indole-2-carboxamide]
+++ (“+++” means <3 uM)		Cc1cc(C)c(Oc2cc(C(C)(C)C)ccc2C(=O)NS(=O)(=O)c2cccc(N)c2)c(C)c1 [Compound 224, N-(3-aminophenyl)sulfonyl-4-tert-butyl-2-(2,4,6-trimethylphenoxy)benzamide]
	< 3000	C[C@@H]1CN(c2nc3ccccc3cc2C(=O)NS(=O)(=O)c2cccc(N)n2)C(C)(C)C1 [Compound 2265, N-[(6-amino-2-pyridyl)sulfonyl]-2-[(4S)-2,2,4-trimethylpyrrolidin-1-yl]quinoline-3-carboxamide]
+++ (“+++” means <3 uM)		Cc1cccc(S(=O)(=O)NC(=O)c2cc(C(C)(C)C)nn2Cc2c(C)cc(C)cc2C)c1 [Compound 80, 5-tert-butyl-N-(m-tolylsulfonyl)-2-[(2,4,6-trimethylphenyl)methyl]pyrazole-3-carboxamide]
++ (“++” means between 3 uM and 10 uM)		Cc1ccc(Oc2nc(C(C)(C)C)ccc2C(=O)NS(=O)(=O)c2ccc[nH]c2=O)c(C)c1 [Compound 55, 6-tert-butyl-2-(2,4-dimethylphenoxy)-N-[(2-oxo-1H-pyridin-3-yl)sulfonyl]pyridine-3-carboxamide]
	3000 to 10000	C[C@@H]1CN(c2nc(-c3cc(O)cc(F)c3)ccc2C(=O)NS(=O)(=O)c2cccnc2N)C(C)(C)C1 [Compound 2349, N-[(2-amino-3-pyridyl)sulfonyl]-6-(3-fluoro-5-hydroxy-phenyl)-2-[(4S)-2,2,4-trimethylpyrrolidin-1-yl]pyridine-3-carboxamide]
++ (“++” means between 3 uM and 10 uM)		Cc1cc(C)c(Oc2nc(-c3c[nH]nc3C(F)(F)F)ccc2C(=O)NS(=O)(=O)c2cccc(N)n2)c(C)c1 [Compound 582, N-[(6-amino-2-pyridyl)sulfonyl]-6-[3-(trifluoromethyl)-1H-pyrazol-4-yl]-2-(2,4,6-trimethylphenoxy)pyridine-3-carboxamide]
	< 3000	CC1CN(c2ncccc2C(=O)NS(=O)(=O)c2cccc(Nc3ccc(F)cc3)n2)C(C)(C)C1 (centres unmarked) [Compound 2102, N—[[6-(4-fluoroanilino)-2-pyridyl]sulfonyl]-2-(2,2,4-trimethylpyrrolidin-1-yl)pyridine-3-carboxamide]
	< 3000	CC1CN(c2ncccc2C(=O)NS(=O)(=O)c2cccc(Nc3cccc(OC(C)C)c3)n2)C(C)(C)C1 (centres unmarked) [Compound 2353, N—[[6-(3-isopropoxyanilino)-2-pyridyl]sulfonyl]-2-(2,2,4-trimethylpyrrolidin-1-yl)pyridine-3-carboxamide]
	< 3000	CC1CN(c2ncccc2C(=O)NS(=O)(=O)c2cccc(OCc3cccc(F)c3)n2)C(C)(C)C1 (centres unmarked) [Compound 2409, N—[[6-[(3-fluorophenyl)methoxy]-2-pyridyl]sulfonyl]-2-(2,2,4-trimethylpyrrolidin-1-yl)pyridine-3-carboxamide]

SMILES	EC30 [1]	EC30 [2] [nM]
Cc1cc(C)c(Oc2nc(-c3cc(F)cc(OCC(C)C)c3)ccc2C(=O)NS(=O)(=O)c2cncc(N)n2)c(C)c1 [Compound 586, N-(6-aminopyrazin-2-yl)sulfonyl-6-(3-fluoro-5-isobutoxy-phenyl)-2-(2,4,6-trimethylphenoxy)pyridine-3-carboxamide]	+++ (“+++” means <3 uM)	
CC(C)COc1cc(F)cc(-c2ccc(C(=O)N(C)S(=O)(=O)c3cccc(N)n3)c(N3C[C@@H](C)CC3(C)C)n2)c1 [Compound 2258, N-[(6-amino-2-pyridyl)sulfonyl]-6-(3-fluoro-5-isobutoxy-phenyl)-N-methyl-2-[(4S)-2,2,4-trimethylpyrrolidin-1-yl]pyridine-3-carboxamide]		< 3000
COc1cccc(S(=O)(=O)NC(=O)c2ccc(-c3cc(F)cc(OCC(C)C)c3)nc2N2CCC(C)(C)CC2)c1 [Compound 510, 2-(4,4-dimethyl-1-piperidyl)-6-(3-fluoro-5-isobutoxy-phenyl)-N-(3-methoxyphenyl)sulfonyl-pyridine-3-carboxamide]	+++ (“+++” means <3 uM)	
